Several values for one entry are separate records, joined by “and”; a condition that tells them apart may be missing. Equal entries are not always repeated. ± gives the uncertainty stated by the source.
Tests used:
[1] = xn = mol fraction of the nth substance listed

C1COCO1
viscosity
Settings	298.15 K	303.15 K	308.15 K	313.15 K	318.15 K	323.15 K
101 kPa	0.587 ± 0.0051 mPa·s	0.62 ± 0.06 mPa·s	0.58 ± 0.06 mPa·s and 0.513 ± 0.007 mPa·s and 0.5128 ± 0.013 mPa·s	0.55 ± 0.06 mPa·s	0.53 ± 0.05 mPa·s and 0.458 ± 0.007 mPa·s and 0.458 ± 0.012 mPa·s	0.4183 ± 0.024 mPa·s and 0.51 ± 0.05 mPa·s
101.3 kPa	0.5919 ± 0.0055 mPa·s	–	–	0.5 ± 0.0048 mPa·s	–	–

CC(C)OC(C)C
viscosity
Settings	293.15 K	298.15 K	303.15 K	308.15 K	313.15 K	318.15 K	323.15 K
100 kPa	0.332 ± 0.017 mPa·s	0.319 ± 0.017 mPa·s	0.304 ± 0.016 mPa·s	0.29 ± 0.015 mPa·s and 0.29 ± 0.02 mPa·s	0.274 ± 0.014 mPa·s	0.261 ± 0.014 mPa·s	0.246 ± 0.013 mPa·s
101 kPa	–	0.315 ± 0.003 mPa·s	–	–	–	–	–
101.33 kPa	0.34 ± 0.021 mPa·s	0.322 ± 0.02 mPa·s	0.31 ± 0.019 mPa·s	0.293 ± 0.018 mPa·s	0.279 ± 0.017 mPa·s	–	–

CC(N)CN (stereo unspecified)
viscosity
Settings	293.15 K	298.15 K	303.15 K	308.15 K	313.15 K	318.15 K	323.15 K
101 kPa	–	1.481 ± 0.027 mPa·s	1.314 ± 0.024 mPa·s and 1.325 ± 0.016 mPa·s	1.175 ± 0.022 mPa·s and 1.192 ± 0.014 mPa·s	1.058 ± 0.02 mPa·s and 1.084 ± 0.013 mPa·s	0.9597 ± 0.018 mPa·s and 0.9891 ± 0.012 mPa·s	0.9091 ± 0.011 mPa·s
101.33 kPa	1.61 ± 0.07 mPa·s	1.49 ± 0.06 mPa·s and 1.47 ± 0.05 mPa·s	1.31 ± 0.05 mPa·s and 1.34 ± 0.04 mPa·s	1.19 ± 0.05 mPa·s and 1.13 ± 0.04 mPa·s	1.06 ± 0.04 mPa·s and 1.06 ± 0.03 mPa·s	0.96 ± 0.04 mPa·s and 0.97 ± 0.03 mPa·s	–

CCC(C)C(C)C (stereo unspecified)
Settings	viscosity [mPa·s]
298.15 K, 101.33 kPa	0.3898 ± 0.0037

CCC(O)CC
viscosity [mPa·s]
Settings	293.15 K	298.15 K	303.15 K	308.15 K	313.15 K	318.15 K	323.15 K
101 kPa	4.646 ± 0.12	4.81 ± 0.044	3.506 ± 0.11	2.773 ± 0.085	2.23 ± 0.069	1.895 ± 0.06	1.528 ± 0.049
101.33 kPa	–	–	3.852 ± 0.051	–	2.272 ± 0.03	–	1.543 ± 0.021

CCCCCCCCC
viscosity
Settings	298.15 K	303.15 K	308.15 K	313.15 K	318.15 K	323.15 K
100 kPa	0.668 ± 0.027 mPa·s	0.627 ± 0.025 mPa·s	–	0.556 ± 0.023 mPa·s	0.526 ± 0.021 mPa·s	0.498 ± 0.02 mPa·s
101 kPa	0.6626 ± 0.0066 mPa·s and 0.6588 ± 0.0084 mPa·s and 0.668 ± 0.013 mPa·s	0.641 ± 0.007 mPa·s	0.5808 ± 0.0074 mPa·s and 0.588 ± 0.012 mPa·s and 0.5974 ± 0.0085 mPa·s	0.5652 ± 0.0084 mPa·s	0.512 ± 0.0066 mPa·s	0.5073 ± 0.0082 mPa·s
101.33 kPa	–	–	–	0.535 ± 0.015 mPa·s	0.505 ± 0.014 mPa·s	–

CCCCCCCCc1ccccc1
102 kPa
Settings	viscosity [mPa·s]
293.15 K	2.57 ± 0.02
303.15 K	2.08 ± 0.01
313.15 K	1.73 ± 0.01
323.15 K	1.46 ± 0.01

CCCOCC(C)O (stereo unspecified)
viscosity [mPa·s]
Settings	298.15 K	303.15 K	308.15 K	318.15 K
100 kPa	2.451 ± 0.15	2.094 ± 0.15	1.885 ± 0.15	–
101.33 kPa	2.389 ± 0.036	–	1.822 ± 0.028	1.416 ± 0.022

CCCOCCC
Settings	viscosity [mPa·s]
298.15 K, 101.33 kPa	0.4024 ± 0.0044

CN1CCCCCC1=O
Settings	viscosity [mPa·s]
298.16 K, 101 kPa	4.92 ± 0.042

COCOC
viscosity [mPa·s]
Settings	293.15 K	298.15 K	303.1 K	303.15 K	308.15 K	313.15 K
100 kPa	0.371 ± 0.037	0.357 ± 0.036	–	0.346 ± 0.035	0.337 ± 0.034	0.329 ± 0.033
101 kPa	–	–	0.304 ± 0.013	–	–	–

Cc1cccc(C)n1
viscosity
Settings	101 kPa	101.33 kPa
293.15 K	–	0.8373 ± 0.0067 mPa·s
295.15 K	0.929 ± 0.04 mPa·s	–
298.15 K	0.8777 ± 0.015 mPa·s	0.7813 ± 0.0063 mPa·s
298.2 K	0.806 ± 0.013 mPa·s	–
300.12 K	–	0.847 ± 0.007 mPa·s
303 K	0.7635 ± 0.0091 mPa·s	–
303.12 K	–	0.833 ± 0.007 mPa·s
303.24 K	0.753 ± 0.012 mPa·s	–
306.99 K	–	0.774 ± 0.006 mPa·s
308.15 K	–	0.6861 ± 0.0055 mPa·s
308.26 K	0.708 ± 0.011 mPa·s	–
313 K	0.6811 ± 0.0081 mPa·s and 0.6687 ± 0.008 mPa·s	–
313.34 K	0.663 ± 0.01 mPa·s	–
318.15 K	–	0.6032 ± 0.0048 mPa·s
318.39 K	0.627 ± 0.01 mPa·s	–
323 K	0.6095 ± 0.0073 mPa·s and 0.5945 ± 0.0072 mPa·s	–

ClC(Cl)C(Cl)(Cl)Cl
101 kPa
Settings	viscosity [mPa·s]
298.15 K	2.26 ± 0.06
303.15 K	1.971 ± 0.019

O=S(Cl)Cl
Settings	viscosity [mPa·s]
298.15 K, 101 kPa	0.6194 ± 0.016

C#CCO + O
viscosity [mPa·s], [1]
Settings	303.15 K	308.15 K	313.15 K	318.15 K	323.15 K
101 kPa, x1 = 0.1	1.094 ± 0.01	0.9708 ± 0.0092	0.8728 ± 0.0084	0.7923 ± 0.0077	0.7208 ± 0.0071
101 kPa, x1 = 0.166	1.191 ± 0.011	1.06 ± 0.01	0.9534 ± 0.0091	0.8633 ± 0.0083	0.7845 ± 0.0076
101 kPa, x1 = 0.3	1.275 ± 0.012	1.135 ± 0.011	1.023 ± 0.0097	0.9273 ± 0.0088	0.845 ± 0.0081
101 kPa, x1 = 0.4	1.291 ± 0.012	1.157 ± 0.011	1.048 ± 0.0099	0.9513 ± 0.009	0.8707 ± 0.0083
101 kPa, x1 = 0.499	1.296 ± 0.012	1.165 ± 0.011	1.054 ± 0.0099	0.9624 ± 0.0091	0.8802 ± 0.0084
101 kPa, x1 = 0.599	1.309 ± 0.012	1.179 ± 0.011	1.069 ± 0.01	0.9758 ± 0.0092	0.8933 ± 0.0085
101 kPa, x1 = 0.7	1.313 ± 0.012	1.188 ± 0.011	1.079 ± 0.01	0.9844 ± 0.0093	0.902 ± 0.0086
101 kPa, x1 = 0.801	1.327 ± 0.012	1.202 ± 0.011	1.092 ± 0.01	0.9977 ± 0.0094	0.9169 ± 0.0087
101 kPa, x1 = 0.899	1.33 ± 0.012	1.204 ± 0.011	1.095 ± 0.01	1 ± 0.0094	0.9179 ± 0.0087
101.32 kPa, x1 = 0.1138	–	0.9894 ± 0.016	0.8862 ± 0.015	0.7991 ± 0.013	0.7267 ± 0.012
101.32 kPa, x1 = 0.2351	–	1.105 ± 0.018	0.9927 ± 0.016	0.8936 ± 0.015	0.8222 ± 0.014
101.32 kPa, x1 = 0.3145	–	1.149 ± 0.018	1.034 ± 0.017	0.9365 ± 0.015	0.8508 ± 0.014
101.32 kPa, x1 = 0.4174	–	1.171 ± 0.019	1.059 ± 0.017	0.9551 ± 0.016	0.8741 ± 0.015
101.32 kPa, x1 = 0.5002	–	1.186 ± 0.019	1.069 ± 0.017	0.9676 ± 0.016	0.8856 ± 0.015
101.32 kPa, x1 = 0.61	–	1.194 ± 0.019	1.077 ± 0.017	0.9877 ± 0.016	0.8958 ± 0.015
101.32 kPa, x1 = 0.7185	–	1.2 ± 0.019	1.085 ± 0.018	0.9924 ± 0.016	0.9072 ± 0.015
101.32 kPa, x1 = 0.8223	–	1.209 ± 0.02	1.095 ± 0.018	1 ± 0.017	0.9191 ± 0.015
101.32 kPa, x1 = 0.9	–	1.216 ± 0.02	1.107 ± 0.018	1.007 ± 0.017	0.9223 ± 0.015

Source: the CheMixHub viscosity set
